Data reported in ChEMBL document CHEMBL3727350, “Agents and methods for treating ischemic and other diseases” (2014).
Active and inactive are the calls of the source. No cut-off for these calls is given here.

Assays:
B16-F10 = test: Inhibition of cell proliferation of mouse B16F10 cells at 1.25 to 10 uM incubated for 72 hrs by SRB assay; assay type: functional, cell-based
H9c2 [1] = test: Toxicity against rat H9c2 cells at 5 uM; assay type: cell-based; conditions: h9c2, 5 µM
[2] = target: Transient receptor potential cation channel subfamily M member 7 (Rattus norvegicus) (UniProt Q925B3); test: Inhibition of TRPM7 in rat H9C2 cells assessed as reduction in channel currents at 0.3 to 30 uM by whole cell patch clamp assay; assay type: cell-based
Sequence of Transient receptor potential cation channel subfamily M member 7 (Rattus norvegicus) (Q925B3 whole entry): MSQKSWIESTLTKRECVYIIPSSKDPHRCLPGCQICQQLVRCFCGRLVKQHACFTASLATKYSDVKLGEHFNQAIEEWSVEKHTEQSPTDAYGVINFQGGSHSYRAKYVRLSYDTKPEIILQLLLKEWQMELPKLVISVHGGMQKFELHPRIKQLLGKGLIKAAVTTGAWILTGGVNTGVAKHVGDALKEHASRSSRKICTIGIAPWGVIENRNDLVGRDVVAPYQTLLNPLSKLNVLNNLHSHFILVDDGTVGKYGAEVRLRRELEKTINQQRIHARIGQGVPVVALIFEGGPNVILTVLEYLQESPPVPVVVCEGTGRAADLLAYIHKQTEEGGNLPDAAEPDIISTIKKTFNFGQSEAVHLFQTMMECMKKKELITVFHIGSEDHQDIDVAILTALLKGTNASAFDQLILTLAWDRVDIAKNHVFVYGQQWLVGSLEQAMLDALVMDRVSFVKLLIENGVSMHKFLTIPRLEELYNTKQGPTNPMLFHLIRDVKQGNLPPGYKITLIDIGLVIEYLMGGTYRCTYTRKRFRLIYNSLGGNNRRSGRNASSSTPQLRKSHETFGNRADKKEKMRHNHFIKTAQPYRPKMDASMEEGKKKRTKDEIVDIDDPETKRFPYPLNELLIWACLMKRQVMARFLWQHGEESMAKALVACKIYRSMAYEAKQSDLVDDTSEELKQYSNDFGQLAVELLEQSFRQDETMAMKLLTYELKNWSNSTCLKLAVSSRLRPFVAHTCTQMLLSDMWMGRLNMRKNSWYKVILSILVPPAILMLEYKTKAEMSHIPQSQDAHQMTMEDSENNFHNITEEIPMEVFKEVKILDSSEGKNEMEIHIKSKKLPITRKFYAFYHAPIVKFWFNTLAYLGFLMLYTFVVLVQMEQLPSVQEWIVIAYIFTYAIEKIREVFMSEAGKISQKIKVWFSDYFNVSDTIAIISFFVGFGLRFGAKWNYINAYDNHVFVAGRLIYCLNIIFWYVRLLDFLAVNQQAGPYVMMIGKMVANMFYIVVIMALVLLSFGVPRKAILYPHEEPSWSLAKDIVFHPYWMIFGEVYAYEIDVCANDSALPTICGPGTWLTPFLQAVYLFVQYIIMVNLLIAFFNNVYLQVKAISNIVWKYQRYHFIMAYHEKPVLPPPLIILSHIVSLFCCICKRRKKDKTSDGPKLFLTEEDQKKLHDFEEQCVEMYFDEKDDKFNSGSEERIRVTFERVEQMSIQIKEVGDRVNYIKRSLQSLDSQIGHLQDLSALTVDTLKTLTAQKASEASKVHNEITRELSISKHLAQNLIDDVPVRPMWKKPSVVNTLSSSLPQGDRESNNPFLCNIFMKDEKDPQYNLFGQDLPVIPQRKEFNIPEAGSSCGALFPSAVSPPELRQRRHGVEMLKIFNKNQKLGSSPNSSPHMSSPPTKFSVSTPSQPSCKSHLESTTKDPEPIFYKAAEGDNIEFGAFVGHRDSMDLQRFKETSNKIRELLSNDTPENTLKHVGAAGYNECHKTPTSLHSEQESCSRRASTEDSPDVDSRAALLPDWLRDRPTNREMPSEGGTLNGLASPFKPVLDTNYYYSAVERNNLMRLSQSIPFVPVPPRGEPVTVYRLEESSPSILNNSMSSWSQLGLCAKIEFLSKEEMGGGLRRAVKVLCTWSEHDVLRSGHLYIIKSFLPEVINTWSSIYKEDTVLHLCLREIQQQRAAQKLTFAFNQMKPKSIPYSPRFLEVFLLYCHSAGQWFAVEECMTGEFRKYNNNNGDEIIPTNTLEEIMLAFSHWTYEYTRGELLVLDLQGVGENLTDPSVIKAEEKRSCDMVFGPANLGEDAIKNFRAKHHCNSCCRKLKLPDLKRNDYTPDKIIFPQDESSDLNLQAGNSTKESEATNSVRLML

[3] = Inhibition of cell proliferation of human WERI cells at 10 uM incubated for 48 to 96 hrs; assay type: functional
[4] = target: Transient receptor potential cation channel subfamily M member 7 (Mus musculus) (UniProt Q923J1); test: Inhibition of Tet-induced Flag-tagged mouse TRPM7 expressed in HEK293 cells assessed as reduction in channel currents at 0.3 to 30 uM by whole cell patch clamp assay; assay type: cell-based
Sequence of Transient receptor potential cation channel subfamily M member 7 (Mus musculus) (Q923J1 whole entry): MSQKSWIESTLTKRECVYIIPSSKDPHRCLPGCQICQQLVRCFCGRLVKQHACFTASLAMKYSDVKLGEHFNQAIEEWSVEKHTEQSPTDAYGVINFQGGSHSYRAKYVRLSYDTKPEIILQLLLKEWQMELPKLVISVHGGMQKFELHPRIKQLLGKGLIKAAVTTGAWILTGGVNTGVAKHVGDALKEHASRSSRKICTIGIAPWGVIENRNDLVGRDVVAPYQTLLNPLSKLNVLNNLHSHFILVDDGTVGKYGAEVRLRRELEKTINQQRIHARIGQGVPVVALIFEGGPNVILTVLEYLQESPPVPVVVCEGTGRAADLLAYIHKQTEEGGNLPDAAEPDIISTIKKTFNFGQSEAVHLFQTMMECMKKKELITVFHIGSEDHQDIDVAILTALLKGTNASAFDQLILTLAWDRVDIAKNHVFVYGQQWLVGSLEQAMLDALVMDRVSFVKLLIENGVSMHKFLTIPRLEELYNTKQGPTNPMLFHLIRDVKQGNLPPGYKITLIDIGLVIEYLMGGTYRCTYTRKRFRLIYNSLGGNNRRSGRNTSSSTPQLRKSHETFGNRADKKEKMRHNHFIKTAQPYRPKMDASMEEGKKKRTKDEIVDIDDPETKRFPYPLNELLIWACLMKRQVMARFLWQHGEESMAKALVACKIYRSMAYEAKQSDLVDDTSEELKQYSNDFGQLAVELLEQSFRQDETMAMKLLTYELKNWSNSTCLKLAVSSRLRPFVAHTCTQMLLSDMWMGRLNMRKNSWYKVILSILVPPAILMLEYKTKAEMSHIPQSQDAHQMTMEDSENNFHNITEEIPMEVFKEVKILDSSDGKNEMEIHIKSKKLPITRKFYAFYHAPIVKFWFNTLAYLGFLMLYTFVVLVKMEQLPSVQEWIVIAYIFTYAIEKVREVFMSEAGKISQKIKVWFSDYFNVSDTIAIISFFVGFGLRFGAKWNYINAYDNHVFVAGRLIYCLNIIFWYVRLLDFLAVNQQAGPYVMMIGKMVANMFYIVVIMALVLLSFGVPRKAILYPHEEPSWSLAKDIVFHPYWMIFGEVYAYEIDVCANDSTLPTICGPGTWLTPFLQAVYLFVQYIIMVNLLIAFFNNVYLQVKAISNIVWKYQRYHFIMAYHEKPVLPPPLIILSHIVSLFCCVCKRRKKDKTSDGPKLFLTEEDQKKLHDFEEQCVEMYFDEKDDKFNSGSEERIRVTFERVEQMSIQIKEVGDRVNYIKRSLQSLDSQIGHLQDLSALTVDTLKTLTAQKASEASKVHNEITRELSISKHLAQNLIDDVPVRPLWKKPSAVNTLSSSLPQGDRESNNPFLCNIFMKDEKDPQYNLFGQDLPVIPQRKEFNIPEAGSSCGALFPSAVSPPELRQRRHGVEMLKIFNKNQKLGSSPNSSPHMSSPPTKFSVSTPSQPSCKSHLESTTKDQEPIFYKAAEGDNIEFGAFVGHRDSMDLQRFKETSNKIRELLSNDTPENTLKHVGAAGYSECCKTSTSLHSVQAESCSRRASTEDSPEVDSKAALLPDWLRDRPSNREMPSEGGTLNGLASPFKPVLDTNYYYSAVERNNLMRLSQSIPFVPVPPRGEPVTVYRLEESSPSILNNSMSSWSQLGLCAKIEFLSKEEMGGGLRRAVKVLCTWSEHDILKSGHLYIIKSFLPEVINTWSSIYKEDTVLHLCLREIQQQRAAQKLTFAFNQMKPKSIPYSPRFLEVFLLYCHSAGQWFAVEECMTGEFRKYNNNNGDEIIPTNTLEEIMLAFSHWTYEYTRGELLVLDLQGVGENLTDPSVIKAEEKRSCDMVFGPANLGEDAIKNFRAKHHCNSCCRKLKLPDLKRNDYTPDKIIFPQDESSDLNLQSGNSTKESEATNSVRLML

[5] = target: Transient receptor potential cation channel subfamily M member 7 (Mus musculus) (UniProt Q923J1); test: Inhibition of TRPM7 in mouse primary neuronal cells exposed to oxygen glucose deprivation condition for 1 to 3 hrs assessed as reduction in TRPM7-mediated anoxic cell death dosed after oxygen glucose deprivation condition by propidium iodide uptake assay; conditions: Primary neuron
SW13 [6] = test: Inhibition of cell proliferation of human SW13 cells at 1.25 to 10 uM incubated for 72 hrs by SRB assay; assay type: functional, cell-based
H9c2 [7] = test: Toxicity against rat H9c2 cells at 10 uM; assay type: cell-based; conditions: h9c2, 10 µM
[8] = target: Transient receptor potential cation channel subfamily M member 7 (Mus musculus) (UniProt Q923J1); test: Inhibition of Tet-induced Flag-tagged mouse TRPM7 expressed in HEK293 cells assessed as inhibition of channel-mediated cell death in presence of Mg2+ incubated for 24 to 48 hrs by propidium iodide uptake assay; assay type: cell-based; design: concentration or dose not given beside the values; conditions: concentration not given here
SW13 [9] = test: Inhibition of cell proliferation of human SW13 cells at 1.25 to 10 uM incubated for 48 hrs by BrdU incorporation assay; assay type: functional, cell-based
MDA-MB-231 = test: Inhibition of cell proliferation of human MDA-MB-231 cells at 1.25 to 10 uM incubated for 72 hrs by SRB assay; assay type: functional, cell-based
B16-F1 = test: Inhibition of cell proliferation of mouse B16-F1 cells at 1.25 to 10 uM incubated for 72 hrs by SRB assay; assay type: functional, cell-based
[10] = Inhibition of cell proliferation of mouse NIH/3T3 cells at 1.25 to 10 uM incubated for 72 hrs by propidium iodide staining assay; assay type: cell-based; conditions: nih3t3, 72 h
[11] = target: Transient receptor potential cation channel subfamily M member 7 (Mus musculus) (UniProt Q923J1); test: Inhibition of TRPM7 in mouse primary neuronal cells exposed to oxygen glucose deprivation condition for 1 to 3 hrs assessed as reduction in TRPM7-mediated anoxic cell death dosed before oxygen glucose deprivation condition by propidium iodide uptake assay; conditions: Primary neuron
HeLa = test: Inhibition of cell proliferation of human HeLa cells at 1.25 to 10 uM incubated for 48 hrs by BrdU incorporation assay; assay type: functional, cell-based
[12] = target: Transient receptor potential cation channel subfamily M member 7 (Mus musculus) (UniProt Q923J1); test: Inhibition of TRPM7 in mouse mouse primary cortical neurons exposed to 2 hrs oxygen glucose deprivation condition assessed as reduction in TRPM7-mediated anoxic cell death measured after 20 hrs by propidium iodide uptake assay; assay type: cell-based; conditions: Cerebral cortex neuron

With Cc1ccc(-n2c(-c3ccc(Cl)c(C)c3)csc2=N)c(C)c1.Cl the inhibition (B16-F10) was “Active”, the Activity (H9c2 [1]) was “Non-toxic” and the inhibition [2] was “Active”. The inhibition at 10 µM [3] was greater than 20%, the inhibition [4] was “Active” and the inhibition [5] was “Active”. The inhibition (SW13 [6]) was “Active”, the Activity (H9c2 [7]) was “Toxic” and the inhibition [8] was 80%. For the same compound, the inhibition (SW13 [9]) was “Active”, the inhibition (MDA-MB-231) was “Active” and the inhibition (B16-F1) was “Active”. For the same compound, the Activity [10] was “Non-toxic”, the inhibition [11] was “Active” and the inhibition (HeLa) was “Active”. The inhibition [12] was “Active”.
